# Experimental data reported in ChEMBL document CHEMBL1141522, “Reduced cardiac side-effect potential by introduction of polar groups: discovery of NIBR-1282, an orally bioavailable CCR5 antagonist which is active in vivo” (Bioorg Med Chem Lett, 2008).
# Activity calls are given as the source filed them. No cut-off for these calls is given here.
# Experiments:
# Heart [1] = assay: Toxicity in isolated rabbit heart model assessed as adverse side effect upto 0.5 uM; assay type: tissue-based, Oryctolagus cuniculus; conditions: ex_vivo
# [2] = biological target: T1, C-C chemokine receptor type 5 (Homo sapiens, UniProt P51681); assay: Displacement of [125I]RANTES from human CCR5 expressed in CHO cells; assay type: cell-based
# T1 sequence (P51681 whole entry): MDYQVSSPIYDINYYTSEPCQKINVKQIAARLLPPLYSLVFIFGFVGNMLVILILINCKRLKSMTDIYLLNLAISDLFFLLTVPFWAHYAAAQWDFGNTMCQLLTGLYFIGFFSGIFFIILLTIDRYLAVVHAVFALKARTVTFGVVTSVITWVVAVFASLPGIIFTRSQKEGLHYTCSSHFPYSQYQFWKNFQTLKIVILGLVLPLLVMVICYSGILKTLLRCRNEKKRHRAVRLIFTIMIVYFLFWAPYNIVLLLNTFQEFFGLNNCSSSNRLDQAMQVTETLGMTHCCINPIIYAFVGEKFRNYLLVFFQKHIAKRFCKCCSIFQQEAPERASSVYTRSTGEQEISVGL
# [3] = biological target: T2, C-C chemokine receptor type 5 (Macaca fascicularis, UniProt P61814); assay: Displacement of radiolabeled MIP-1alpha from cynomolgus monkey CCR5 expressed in CHO cells; assay type: cell-based
# [4] = biological target: Voltage-gated inwardly rectifying potassium channel KCNH2 (Homo sapiens, UniProt Q12809); assay: Displacement of [3H]dofetilide from human ERG expressed in HEK293 cell membranes
# Sequence of Voltage-gated inwardly rectifying potassium channel KCNH2 (Q12809 whole entry): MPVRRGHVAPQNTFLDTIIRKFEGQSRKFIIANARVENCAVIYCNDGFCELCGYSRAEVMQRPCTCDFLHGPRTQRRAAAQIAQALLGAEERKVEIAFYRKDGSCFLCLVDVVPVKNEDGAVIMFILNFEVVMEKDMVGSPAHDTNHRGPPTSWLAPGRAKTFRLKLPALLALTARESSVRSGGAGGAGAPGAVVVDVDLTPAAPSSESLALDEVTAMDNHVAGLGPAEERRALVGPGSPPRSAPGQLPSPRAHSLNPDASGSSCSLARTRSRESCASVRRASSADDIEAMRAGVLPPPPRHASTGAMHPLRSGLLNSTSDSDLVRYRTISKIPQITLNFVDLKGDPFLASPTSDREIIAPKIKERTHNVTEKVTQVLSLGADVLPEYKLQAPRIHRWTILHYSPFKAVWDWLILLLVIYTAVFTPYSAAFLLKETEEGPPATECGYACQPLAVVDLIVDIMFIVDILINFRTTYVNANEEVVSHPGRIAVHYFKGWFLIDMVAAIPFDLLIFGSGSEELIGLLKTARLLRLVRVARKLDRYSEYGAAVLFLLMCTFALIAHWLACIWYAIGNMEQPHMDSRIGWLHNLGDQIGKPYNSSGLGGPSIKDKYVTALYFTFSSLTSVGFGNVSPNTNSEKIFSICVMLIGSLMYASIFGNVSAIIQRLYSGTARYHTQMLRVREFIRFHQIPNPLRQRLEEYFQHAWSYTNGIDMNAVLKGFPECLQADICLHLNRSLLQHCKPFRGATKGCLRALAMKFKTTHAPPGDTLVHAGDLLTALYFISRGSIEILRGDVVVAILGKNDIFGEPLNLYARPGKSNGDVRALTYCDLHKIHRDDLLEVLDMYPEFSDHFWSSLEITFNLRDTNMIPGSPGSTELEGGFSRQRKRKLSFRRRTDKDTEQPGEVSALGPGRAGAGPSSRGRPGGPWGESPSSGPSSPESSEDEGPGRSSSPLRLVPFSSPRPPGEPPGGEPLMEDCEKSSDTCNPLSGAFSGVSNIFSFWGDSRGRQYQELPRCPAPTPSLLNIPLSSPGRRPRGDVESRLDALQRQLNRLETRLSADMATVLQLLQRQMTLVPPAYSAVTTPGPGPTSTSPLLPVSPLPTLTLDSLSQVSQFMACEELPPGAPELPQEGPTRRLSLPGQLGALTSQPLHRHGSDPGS
# Heart [5] = assay: Toxicity in isolated rabbit heart model assessed as adverse side effect upto 1.0 uM; assay type: tissue-based, Oryctolagus cuniculus; conditions: ex_vivo
# Heart [6] = assay: Toxicity in isolated rabbit heart model assessed as adverse side effect upto 5.0 uM; assay type: tissue-based, Oryctolagus cuniculus
# Heart [7] = assay: Toxicity in isolated rabbit heart model assessed as adverse side effect upto 1.5 uM; assay type: tissue-based, Oryctolagus cuniculus
# [8] = Oral bioavailability in rat; assay type: ADME, organism-based; conditions: in vivo
# [9] = Tmax in po dosed cynomolgus monkey; assay type: ADME, organism-based, Macaca fascicularis; conditions: in vivo
# [10] = biological target: C-X-C chemokine receptor type 3 (Homo sapiens) (UniProt P49682); assay: Inhibition of CXCR3 upto 1 uM
# [11] = Protein binding in rat plasma; assay type: ADME, cell-free
# [12] = biological target: T1, C-C chemokine receptor type 5; assay: Antagonist activity at human CCR5 expressed in L1.2 cells assessed as MIP-1-alpha-induced Ca2+ mobilization; assay type: functional, cell-based
# [13] = Mean residence time in cynomolgus monkey; assay type: ADME, organism-based, Macaca fascicularis; conditions: in vivo
# Cytochrome P450 2C9 = Cytochrome P450 2C9 (Homo sapiens, UniProt P11712); assay: Inhibition of CYP2C9; assay type: ADME
# [14] = biological target: T2, C-C chemokine receptor type 5; assay: Antagonist activity at cynomolgus monkey CCR5 expressed in CHO cells assessed as MIP-1-alpha-induced Ca2+ mobilization; assay type: functional, cell-based
# Heart [15] = assay: Toxicity in isolated rabbit heart model assessed as adverse side effect upto 10 uM; assay type: tissue-based, Oryctolagus cuniculus
# [16] = biological target: C-C chemokine receptor type 1 (Homo sapiens) (UniProt P32246); assay: Inhibition of CCR1 upto 1 uM
# Sequence of C-C chemokine receptor type 1 (Homo sapiens) (P32246 whole entry): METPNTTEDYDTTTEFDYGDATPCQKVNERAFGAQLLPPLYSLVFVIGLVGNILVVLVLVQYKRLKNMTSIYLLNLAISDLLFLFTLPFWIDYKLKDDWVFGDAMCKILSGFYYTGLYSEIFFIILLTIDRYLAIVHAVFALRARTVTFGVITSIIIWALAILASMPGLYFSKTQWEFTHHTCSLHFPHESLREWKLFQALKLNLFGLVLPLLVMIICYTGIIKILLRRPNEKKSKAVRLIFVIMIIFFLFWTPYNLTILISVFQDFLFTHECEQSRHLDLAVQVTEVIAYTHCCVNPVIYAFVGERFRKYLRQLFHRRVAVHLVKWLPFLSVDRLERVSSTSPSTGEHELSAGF
# [17] = AUC in dog at 1 mg/kg, po; assay type: ADME, organism-based, Canis lupus familiaris; parameters: dose 1 mg/kg, route oral; conditions: plasma
# [18] = AUC in cynomolgus monkey at 1 mg/kg, po; assay type: ADME, organism-based, Macaca fascicularis; parameters: dose 1 mg/kg, route oral; conditions: plasma
# [19] = Half life in po dosed dog; assay type: ADME, organism-based, Canis lupus familiaris; conditions: in vivo
# [20] = Oral bioavailability in cynomolgus monkey; assay type: ADME, organism-based, Macaca fascicularis; conditions: in vivo
# Cytochrome P450 1A2 = Cytochrome P450 1A2 (Homo sapiens, UniProt P05177); assay: Inhibition of CYP1A2; assay type: ADME
# [21] = biological target: C-C chemokine receptor type 3 (Homo sapiens) (UniProt P51677); assay: Inhibition of CCR3 upto 1 uM
# [22] = Cmax in dog at 1 mg/kg, po; assay type: ADME, organism-based, Canis lupus familiaris; parameters: dose 1 mg/kg, route oral; conditions: in vivo
# Cytochrome P450 3A4 = Cytochrome P450 3A4 (Homo sapiens, UniProt P08684); assay: Inhibition of CYP3A4; assay type: ADME
# Sequence of Cytochrome P450 3A4 (P08684 whole entry): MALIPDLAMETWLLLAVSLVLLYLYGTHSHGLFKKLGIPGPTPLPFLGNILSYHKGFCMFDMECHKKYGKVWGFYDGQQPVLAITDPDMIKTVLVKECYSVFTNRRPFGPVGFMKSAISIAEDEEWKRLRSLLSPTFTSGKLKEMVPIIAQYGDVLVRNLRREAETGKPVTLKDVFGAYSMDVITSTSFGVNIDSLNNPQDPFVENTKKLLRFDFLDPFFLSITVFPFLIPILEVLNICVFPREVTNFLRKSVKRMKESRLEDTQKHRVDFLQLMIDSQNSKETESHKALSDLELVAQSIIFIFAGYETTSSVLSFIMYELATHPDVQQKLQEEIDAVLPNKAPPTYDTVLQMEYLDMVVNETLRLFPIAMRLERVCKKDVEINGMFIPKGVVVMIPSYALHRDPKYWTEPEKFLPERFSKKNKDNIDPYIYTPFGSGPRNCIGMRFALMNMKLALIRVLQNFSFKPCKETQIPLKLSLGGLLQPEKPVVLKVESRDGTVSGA
# [23] = Permeability from basolateral to apical side of human Caco-2 cell membranes; assay type: ADME, cell-based; conditions: read-out: permeability (converted)
# [24] = Partition coefficient, log P of the compound; assay type: physicochemical; conditions: octanol/water
# [25] = biological target: C-C chemokine receptor type 2 (Homo sapiens) (UniProt P41597); assay: Inhibition of CCR2 upto 1 uM
# [26] = Cmax in rat at 1 mg/kg, po; assay type: ADME, organism-based; parameters: dose 1 mg/kg, route oral; conditions: in vivo
# [27] = Permeability from apical to basolateral side of human Caco-2 cell membranes; assay type: ADME, cell-based; conditions: read-out: permeability (converted)
# Cynomolgus monkey [28] = assay: Prolongation of graft survival in cynomolgus monkey kidney transplantation model at 20 mg/kg, sc bid; assay type: functional, Macaca fascicularis; conditions: route subcutaneous
# [29] = Mean residence time in dog; assay type: ADME, organism-based, Canis lupus familiaris; conditions: in vivo
# [30] = biological target: T1, C-C chemokine receptor type 5; assay: Antagonist activity at human CCR5 expressed in CHO cells assessed as MIP-1-alpha-induced Ca2+ mobilization; assay type: functional, cell-based
# [31] = AUC in rat at 1 mg/kg, po; assay type: ADME, organism-based; parameters: dose 1 mg/kg, route oral; conditions: plasma
# [32] = Protein binding in human plasma; assay type: ADME, cell-free
# [33] = Cmax in cynomolgus monkey at 1 mg/kg, po; assay type: ADME, organism-based, Macaca fascicularis; parameters: dose 1 mg/kg, route oral; conditions: in vivo
# [34] = Oral bioavailability in dog; assay type: ADME, organism-based, Canis lupus familiaris; conditions: in vivo
# Cynomolgus monkey [35] = assay: Prolongation of graft survival in cynomolgus monkey kidney transplantation model at 40 mg/kg, po qd in presence of cyclosporine A; assay type: functional, Macaca fascicularis
# [36] = Dissociation constant, pKa of the compound; assay type: physicochemical
# [37] = Half life in po dosed rat; assay type: ADME, organism-based; conditions: in vivo
# [38] = Inhibition of muscarinic acetylcholine receptor at 1 uM
# [39] = Solubility at pH 7.4; assay type: physicochemical; conditions: buffer
# [40] = Intrinsic clearance in human liver microsomes; assay type: ADME, Microsome
# [41] = Intrinsic clearance in rat liver microsomes; assay type: ADME, Microsome
# Cytochrome P450 2D6 = Cytochrome P450 2D6 (Homo sapiens, UniProt P10635); assay: Inhibition of CYP2D6; assay type: ADME
# Sequence of Cytochrome P450 2D6 (P10635 whole entry): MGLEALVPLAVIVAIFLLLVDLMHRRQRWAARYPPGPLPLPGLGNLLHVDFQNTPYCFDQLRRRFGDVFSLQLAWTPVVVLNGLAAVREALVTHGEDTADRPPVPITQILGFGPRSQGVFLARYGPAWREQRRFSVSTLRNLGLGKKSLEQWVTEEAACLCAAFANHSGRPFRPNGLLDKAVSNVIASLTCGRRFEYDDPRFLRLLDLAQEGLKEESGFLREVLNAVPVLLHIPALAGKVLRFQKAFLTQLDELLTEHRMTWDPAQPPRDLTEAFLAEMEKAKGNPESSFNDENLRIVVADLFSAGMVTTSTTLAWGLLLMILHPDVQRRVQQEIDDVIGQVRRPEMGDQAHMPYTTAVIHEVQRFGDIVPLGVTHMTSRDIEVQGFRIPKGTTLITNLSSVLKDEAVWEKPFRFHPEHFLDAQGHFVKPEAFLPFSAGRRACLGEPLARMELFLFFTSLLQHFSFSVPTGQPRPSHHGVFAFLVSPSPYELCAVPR
# Cynomolgus monkey [42] = assay: Prolongation of graft survival in cynomolgus monkey kidney transplantation model at 20 mg/kg, sc bid in presence of cyclosporine A; assay type: functional, Macaca fascicularis; conditions: route subcutaneous
# [43] = biological target: C-C chemokine receptor type 5 (Mus musculus) (UniProt P51682); assay: Binding affinity to mouse CCR5
# Sequence of C-C chemokine receptor type 5 (Mus musculus) (P51682 whole entry, looked up): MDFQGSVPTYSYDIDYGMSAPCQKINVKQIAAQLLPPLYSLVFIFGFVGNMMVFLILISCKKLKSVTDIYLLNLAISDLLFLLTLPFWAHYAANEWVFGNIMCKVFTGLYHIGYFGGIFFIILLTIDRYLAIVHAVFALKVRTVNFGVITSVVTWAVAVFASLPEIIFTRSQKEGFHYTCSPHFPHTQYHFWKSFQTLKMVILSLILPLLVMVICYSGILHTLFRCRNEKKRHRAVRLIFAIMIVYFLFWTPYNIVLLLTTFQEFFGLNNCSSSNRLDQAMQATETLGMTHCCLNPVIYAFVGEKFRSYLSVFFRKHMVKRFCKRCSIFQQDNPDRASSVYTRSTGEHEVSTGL
# [44] = Tmax in po dosed dog; assay type: ADME, organism-based, Canis lupus familiaris; conditions: in vivo
# [45] = biological target: C-C chemokine receptor type 7 (Homo sapiens) (UniProt P32248); assay: Inhibition of CCR7 upto 1 uM
# [46] = Half life in po dosed cynomolgus monkey; assay type: ADME, organism-based, Macaca fascicularis; conditions: in vivo
# [47] = biological target: C-X-C chemokine receptor type 4 (Homo sapiens) (UniProt P61073); assay: Inhibition of CXCR4 upto 1 uM
# [48] = Lipophilicity, log D at pH 6.8; assay type: physicochemical; conditions: buffer
# [49] = biological target: C-X-C chemokine receptor type 6 (Homo sapiens) (UniProt O00574); assay: Inhibition of CXCR6 upto 1 uM
# [50] = biological target: C-X-C chemokine receptor type 2 (Homo sapiens) (UniProt P25025); assay: Inhibition of CXCR2 upto 1 uM
# [51] = Tmax in po dosed rat; assay type: ADME, organism-based; conditions: in vivo
# [52] = biological target: C-C chemokine receptor type 4 (Homo sapiens) (UniProt P51679); assay: Inhibition of CCR4 upto 1 uM
# Sequence of C-C chemokine receptor type 4 (Homo sapiens) (P51679 whole entry): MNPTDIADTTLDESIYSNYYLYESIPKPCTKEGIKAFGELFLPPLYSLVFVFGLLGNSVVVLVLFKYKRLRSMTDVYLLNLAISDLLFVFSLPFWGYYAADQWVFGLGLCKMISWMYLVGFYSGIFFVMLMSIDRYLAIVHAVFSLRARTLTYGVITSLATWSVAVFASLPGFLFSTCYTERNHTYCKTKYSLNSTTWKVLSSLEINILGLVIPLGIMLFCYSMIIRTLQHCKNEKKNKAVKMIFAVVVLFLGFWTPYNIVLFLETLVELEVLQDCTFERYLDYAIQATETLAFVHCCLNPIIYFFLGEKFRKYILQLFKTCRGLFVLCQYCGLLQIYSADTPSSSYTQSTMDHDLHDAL
# Cytochrome P450 2C19 = Cytochrome P450 2C19 (Homo sapiens, UniProt P33261); assay: Inhibition of CYP2C19; assay type: ADME
# Sequence of Cytochrome P450 2C19 (P33261 whole entry): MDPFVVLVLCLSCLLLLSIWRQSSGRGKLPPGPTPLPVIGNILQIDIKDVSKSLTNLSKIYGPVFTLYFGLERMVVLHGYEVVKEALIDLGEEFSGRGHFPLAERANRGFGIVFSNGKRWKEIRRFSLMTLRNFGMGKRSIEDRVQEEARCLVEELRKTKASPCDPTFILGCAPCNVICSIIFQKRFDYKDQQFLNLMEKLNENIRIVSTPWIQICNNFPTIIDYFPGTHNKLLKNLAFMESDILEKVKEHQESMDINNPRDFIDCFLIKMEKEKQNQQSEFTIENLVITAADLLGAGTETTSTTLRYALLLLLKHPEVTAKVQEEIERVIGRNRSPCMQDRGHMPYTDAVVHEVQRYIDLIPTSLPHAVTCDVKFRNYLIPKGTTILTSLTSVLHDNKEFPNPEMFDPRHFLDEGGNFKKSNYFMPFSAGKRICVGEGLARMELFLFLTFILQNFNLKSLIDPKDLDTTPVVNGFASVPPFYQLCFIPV
# [53] = Solubility in water; assay type: physicochemical
# [54] = biological target: C-C chemokine receptor type 6 (Homo sapiens) (UniProt P51684); assay: Inhibition of CCR6 upto 1 uM
# Sequence of C-C chemokine receptor type 6 (Homo sapiens) (P51684 whole entry): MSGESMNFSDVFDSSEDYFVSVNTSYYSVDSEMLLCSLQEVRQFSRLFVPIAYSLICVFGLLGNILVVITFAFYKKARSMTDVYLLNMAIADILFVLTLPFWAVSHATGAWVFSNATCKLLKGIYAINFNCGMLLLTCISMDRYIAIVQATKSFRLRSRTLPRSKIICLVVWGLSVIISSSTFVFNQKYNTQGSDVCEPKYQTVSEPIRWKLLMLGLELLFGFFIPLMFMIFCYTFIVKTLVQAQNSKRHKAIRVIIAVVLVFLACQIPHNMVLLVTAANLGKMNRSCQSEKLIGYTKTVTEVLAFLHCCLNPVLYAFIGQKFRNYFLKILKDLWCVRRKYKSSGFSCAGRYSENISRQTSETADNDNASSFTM
# [55] = biological target: C-X-C chemokine receptor type 1 (Homo sapiens) (UniProt P25024); assay: Inhibition of CXCR1 upto 1 uM
smiles,measurement,setting,value
Cc1cccc(C)c1C(=O)N1CCC(C)(N2CCC(N(c3ccccc3)c3ccncc3)CC2)CC1,Activity,Heart [1],Non-toxic
same,IC50,[2],2 nM
same,IC50,[3],9.8 nM
Cc1ccnc(C)c1C(=O)N1CCC(C)(N2CCC(N(c3ccccc3)c3ccccc3)CC2)CC1,Activity,Heart [1],Non-toxic
same,IC50,[4],570 nM
CC1(N2CCC(N(c3ccccc3)c3cccnc3)CC2)CCN(C(=O)c2cccc3ccccc23)CC1,IC50,[2],1.3 nM
same,Activity,Heart [5],Non-toxic
same,IC50,[3],3.6 nM
CC1(N2CCC(N(c3ccccc3)c3cccnc3)CC2)CCN(C(=O)c2c(Cl)c[n+]([O-])cc2Cl)CC1,IC50,[2],1 nM
same,Activity,Heart [5],Non-toxic
same,IC50,[3],4.2 nM
Cc1cc[n+]([O-])c(C)c1C(=O)N1CCC(C)(N2CCC(N(Cc3cccc(C#N)c3)c3ccccc3)CC2)CC1,Activity,Heart [5],Non-toxic
Cc1ccnc(C)c1C(=O)N1CCC(C)(N2CCC(N(c3ccccc3)c3cccnc3)CC2)CC1,IC50,[2],0.9 nM
same,Activity,Heart [5],Non-toxic
same,IC50,[3],0.8 nM
Cc1cc[n+]([O-])c(C)c1C(=O)N1CCC(C)(N2CCC(N(Cc3ccccc3)c3ccccc3)CC2)CC1,Activity,Heart [1],Non-toxic
CC1(N2CCC(N(c3ccccc3)c3cccnc3)CC2)CCN(C(=O)c2c(Cl)cncc2Cl)CC1,Activity,Heart [1],Non-toxic
same,IC50,[2],0.8 nM
same,IC50,[3],3.2 nM
Cc1nc(CN(c2ccccc2)C2CCN(C3(C)CCN(C(=O)c4c(C)cc[n+]([O-])c4C)CC3)CC2)cs1,Activity,Heart [6],Non-toxic
same,IC50,[2],1.7 nM
same,IC50,[4],12200 nM
same,IC50,[3],107 nM
Cc1cccc(C)c1C(=O)N1CCC(C)(N2CCC(N(Cc3ccccc3)c3ccccc3)CC2)CC1,IC50,[4],670 nM
same,Activity,Heart [7],Non-toxic
Cc1nc[n+]([O-])c(C)c1C(=O)N1CCC(C)(N2CCC(N(c3ccccc3)c3ccccc3)CC2)CC1,IC50,[4],1200 nM
same,Activity,Heart [7],Non-toxic
Cc1cccc(C)c1C(=O)N1CCC(C)(N2CCC(N(c3ccccc3)c3cccnc3)CC2)CC1,Activity,Heart [1],Non-toxic
same,IC50,[2],0.5 nM
same,IC50,[3],1.1 nM
Cc1cccnc1C(=O)N1CCC(C)(N2CCC(N(c3ccccc3)c3cccnc3)CC2)CC1,Activity,Heart [1],Non-toxic
same,IC50,[2],6.5 nM
same,IC50,[3],39 nM
Cc1cc[n+]([O-])c(C)c1C(=O)N1CCC(C)(N2CCC(N(c3ccccc3)c3cccnc3)CC2)CC1,bioavailability,[8],22%
same,Tmax,[9],0.5 h
same,Activity,[10],inactive
same,fraction unbound,[11],0.48
same,IC50,[12],16.2 nM
same,MRT,[13],6 h
same,IC50,Cytochrome P450 2C9,> 10000 nM
same,IC50,[14],64 nM
same,Activity,Heart [15],Non-toxic
same,Activity,[16],inactive
same,AUC,[17],0.278 µg·h/mL
same,AUC,[18],0.503 µg·h/mL
same,half-life,[19],7.9 h
same,bioavailability,[20],43%
same,IC50,Cytochrome P450 1A2,> 10000 nM
same,Activity,[21],inactive
same,Cmax,[22],0.084 µg/mL
same,IC50,Cytochrome P450 3A4,5300 nM
same,Papp B→A,[23],108 nm/s
same,logP,[24],2.2
same,Activity,[25],inactive
same,Cmax,[26],0.0058 µg/mL
same,Papp A→B,[27],6.67 nm/s
same,Activity,Cynomolgus monkey [28],6 days
same,MRT,[29],8 h
same,IC50,[2],5.1 nM
same,IC50,[30],43.6 nM
same,AUC,[31],0.041 µg·h/mL
same,fraction unbound,[32],0.62
same,Cmax,[33],0.093 µg/mL
same,bioavailability,[34],56%
same,Activity,Cynomolgus monkey [35],39 days
same,pKa,[36],5.5
same,half-life,[37],8.1 h
same,Activity,[38],inactive
same,solubility,[39],> 12.5 mg/mL
same,microsomal CLint,[40],< 15 µL/min/mg
same,microsomal CLint,[41],< 15 µL/min/mg
same,IC50,Cytochrome P450 2D6,> 10000 nM
same,Activity,Cynomolgus monkey [42],>100 days
same,Activity,[43],inactive
same,Tmax,[44],0.6 h
same,Activity,[45],inactive
same,half-life,[46],6.3 h
same,Activity,[47],inactive
same,logD,[48],0.8
same,Activity,[49],inactive
same,Activity,[50],inactive
same,Tmax,[51],0.4 h
same,Activity,[52],inactive
same,IC50,Cytochrome P450 2C19,> 10000 nM
same,solubility,[53],1 mg/mL
same,Activity,[54],inactive
same,Activity,[55],inactive
same,IC50,[3],8.1 nM
Cc1cc[n+]([O-])c(C)c1C(=O)N1CCC(C)(N2CCC(N(c3ccccc3)c3ccccn3)CC2)CC1,IC50,[2],1.8 nM
same,Activity,Heart [5],Non-toxic
same,IC50,[3],12 nM
Cc1cc[n+]([O-])c(C)c1C(=O)N1CCC(C)(N2CCC(N(c3ccccc3)c3ccccc3)CC2)CC1,Activity,Heart [1],Non-toxic
same,IC50,[3],3.4 nM
Cc1cccc(C)c1C(=O)N1CCC(C)(N2CCC(N(c3ccccc3)c3ccccc3)CC2)CC1,IC50,[4],150 nM
same,Activity,Heart [5],Non-toxic
Cc1ncnc(C)c1C(=O)N1CCC(C)(N2CCC(N(c3ccccc3)c3ccccc3)CC2)CC1,Activity,Heart [1],Non-toxic
